According to patent publication EP3363436A1, “AGENT FOR TREATING PARASITIC WORM DISEASES” (Haas, Helmut, priority 2017, dated 2018):

Tested on: S. mansoni
Experiment: Drug testing on schistosomes in vitro (incubation of cultured worms with the substance, morphological assessment)
Type: cell-based
Text: Mirazidien für die Infektion von Wasserschnecken (Biomphalaria glabrata, Stamm Puerto Rico) wurden mittels Standardverfahren aus Gewebe (Leber, Darm) von Syrischen Goldhamstern bzw. Mäusen gewonnen, die mit S. mansoni (Liberian strain bzw. Brasilian strain) infiziert worden waren. Hierzu wurde das Gewebe (freundlicherweise zur Verfügung gestellt von Prof. Dr. Grevelding, Universität Gießen bzw. von Dr. Sombetzki, Universität Rostock) mechanisch zerkleinert und die darin enthaltenen Wurmeier mittels Enzymverdau aus dem Gewebeverband herausgelöst. Nach Zugabe von H2O zu dem Gewebspräzipitat schlüpfen aus den Eiern die Mirazidien. Die Infektion erfolgte separat für jede Schnecke mit 4-7 Mirazidien. Da Licht für die Zerkarien der Schlüsselreiz zum Verlassen der Schnecke ist, wurden die Schnecken in der vierten Woche nach Infektion dunkel gestellt, um ein vorzeitiges Ausschwärmen von Zerkarien zu unterbinden.
6-7 Wochen nach Infektion wurden die infizierten Schnecken aus Beispiel 1 in Wasser mittels einer 60-Watt Glühlampe von oben belichtet, da ab diesem Zeitpunkt Zerkarien die infizierten Schnecken in ausreichender Menge verlassen. Während einer Belichtungsdauer von 2-3 Stunden wurden die aufschwimmenden Zerkarien gesammelt. Nach wiederholtem Waschen und Überführen in Medium erfolgte die Transformation der Zerkarien mechanisch nach Standardverfahren. Dazu erfolgten wiederholte Passagen durch eine Emulsionsnadel, an die zwei Spritzen angeschlossen sind. Die durch die Transformation aus den Zerkarien (Gabelschwanzlarven) entstandenen Schistosomula wurden ebenfalls wiederholt in Medium gewaschen und dabei von den abgescherten Schwänzen getrennt.
Die transformierten Schistosomula wurden nach dem von Basch beschriebenen Verfahren kultiviert (Basch (1981), J Parasitol.; 67: 179-185), wobei das Verfahren leicht modifiziert wurde, wie es bei Reimers beschrieben wurde (Reimers et al. (2015), PLoS Negl Trop Dis 9(3): e0003593). […]

SMILES | Abtöten von Schistosomen (in vitro, Schistosomula, juvenile and adult worms, initially 10 µM (Figures 1-2: 10, 20, 40 µM), 24 h exposure then wash-out, assessed at 4 h, 24 h, 48 h, 72 h and 7 days) | morphologische Veränderungen und Schädigung der Würmer (incubation of parasitic worms with Felodipin in vitro) | Verstärkung der Wirkung von Felodipin (Loperamid given together with Felodipin, in vitro)
CCOC(=O)C1=C(C)NC(C)=C(C(=O)OC)C1c1cccc(Cl)c1Cl (racemic) [Felodipin] | hochwirksam Schistosomen abtöten | erheblichen morphologischen Veränderungen und irreversiblen Schädigung der Würmer | 
CN(C)C(=O)C(CCN1CCC(O)(c2ccc(Cl)cc2)CC1)(c1ccccc1)c1ccccc1 [Loperamid, 4-[4-(4-Chlorphenyl)-4-hydroxypiperidin-1-yl]-N,N-dimethyl-2,2-diphenylbutyramid] |  |  | verstärkt Loperamid die Wirkung von Felodipin signifikant
